In ChEMBL document CHEMBL1134658 (J Med Chem, 2001) one finds IC50 data, which are given here for 17 compounds.

One assay has as its target T1, Cytochrome P450 2C18 (Homo sapiens, UniProt P33260).
T1 sequence (P33260 whole entry): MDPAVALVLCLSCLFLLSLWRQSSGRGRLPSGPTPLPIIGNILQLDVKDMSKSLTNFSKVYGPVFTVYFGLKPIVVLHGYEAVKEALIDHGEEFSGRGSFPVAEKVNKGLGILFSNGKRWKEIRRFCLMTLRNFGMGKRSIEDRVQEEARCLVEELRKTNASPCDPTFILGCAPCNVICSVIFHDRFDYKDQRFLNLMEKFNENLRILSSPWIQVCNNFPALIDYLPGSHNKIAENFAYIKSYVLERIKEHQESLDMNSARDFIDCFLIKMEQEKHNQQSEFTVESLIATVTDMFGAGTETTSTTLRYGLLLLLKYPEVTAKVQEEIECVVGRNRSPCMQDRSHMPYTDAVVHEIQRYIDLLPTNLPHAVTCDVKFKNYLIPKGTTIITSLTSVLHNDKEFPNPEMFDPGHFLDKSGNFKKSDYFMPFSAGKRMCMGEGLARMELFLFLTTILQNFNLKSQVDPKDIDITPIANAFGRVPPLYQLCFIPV
The assay is described as follows: Inhibitory effect on human recombinant liver cytochrome P450 2C18 expressed in yeast strain.

The target of the next assay is T2, Cytochrome P450 2C8 (Homo sapiens, UniProt P10632).
T2 sequence (P10632 whole entry): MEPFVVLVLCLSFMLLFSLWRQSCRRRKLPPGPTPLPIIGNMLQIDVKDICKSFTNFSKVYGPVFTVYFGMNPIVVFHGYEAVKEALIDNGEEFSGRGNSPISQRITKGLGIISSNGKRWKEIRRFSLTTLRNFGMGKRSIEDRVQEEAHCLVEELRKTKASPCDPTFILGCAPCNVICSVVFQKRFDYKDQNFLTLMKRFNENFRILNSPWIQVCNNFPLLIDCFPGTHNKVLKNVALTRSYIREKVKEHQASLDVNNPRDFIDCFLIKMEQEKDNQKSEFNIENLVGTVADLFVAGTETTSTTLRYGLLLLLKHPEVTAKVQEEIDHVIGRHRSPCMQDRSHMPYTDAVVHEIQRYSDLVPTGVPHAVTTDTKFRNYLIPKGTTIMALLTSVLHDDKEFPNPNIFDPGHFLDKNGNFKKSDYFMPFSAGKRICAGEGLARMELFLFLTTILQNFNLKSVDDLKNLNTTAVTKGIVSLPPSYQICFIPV
The experiment in a line: Inhibitory effect on human recombinant liver Cytochrome P450 2C8 expressed in yeast strain.

In a further assay the target is Cytochrome P450 2C19 (Homo sapiens, UniProt P33261). The assay is described as follows: Inhibitory effect on human recombinant liver cytochrome P450 2C19 expressed in yeast strain.
Chain of Cytochrome P450 2C19 (P33261 whole entry): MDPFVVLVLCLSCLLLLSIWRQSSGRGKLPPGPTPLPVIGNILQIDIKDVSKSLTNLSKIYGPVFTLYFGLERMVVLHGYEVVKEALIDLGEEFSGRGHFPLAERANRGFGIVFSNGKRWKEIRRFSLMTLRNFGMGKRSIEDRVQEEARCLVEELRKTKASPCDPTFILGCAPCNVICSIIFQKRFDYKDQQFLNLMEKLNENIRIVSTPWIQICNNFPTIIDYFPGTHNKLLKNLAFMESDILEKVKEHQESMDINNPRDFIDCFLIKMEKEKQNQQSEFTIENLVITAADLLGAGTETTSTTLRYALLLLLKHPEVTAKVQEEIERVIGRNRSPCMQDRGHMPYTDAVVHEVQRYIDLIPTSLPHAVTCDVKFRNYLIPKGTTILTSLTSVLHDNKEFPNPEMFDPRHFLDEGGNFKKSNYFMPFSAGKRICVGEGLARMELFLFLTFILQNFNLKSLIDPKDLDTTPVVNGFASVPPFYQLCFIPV
For the next assay, the target named is Cytochrome P450 2C9 (Homo sapiens, UniProt P11712). The experiment in a line: Inhibitory effect on human recombinant liver cytochrome P450 2C9 expressed in yeast strain.
Chain of Cytochrome P450 2C9 (P11712 whole entry): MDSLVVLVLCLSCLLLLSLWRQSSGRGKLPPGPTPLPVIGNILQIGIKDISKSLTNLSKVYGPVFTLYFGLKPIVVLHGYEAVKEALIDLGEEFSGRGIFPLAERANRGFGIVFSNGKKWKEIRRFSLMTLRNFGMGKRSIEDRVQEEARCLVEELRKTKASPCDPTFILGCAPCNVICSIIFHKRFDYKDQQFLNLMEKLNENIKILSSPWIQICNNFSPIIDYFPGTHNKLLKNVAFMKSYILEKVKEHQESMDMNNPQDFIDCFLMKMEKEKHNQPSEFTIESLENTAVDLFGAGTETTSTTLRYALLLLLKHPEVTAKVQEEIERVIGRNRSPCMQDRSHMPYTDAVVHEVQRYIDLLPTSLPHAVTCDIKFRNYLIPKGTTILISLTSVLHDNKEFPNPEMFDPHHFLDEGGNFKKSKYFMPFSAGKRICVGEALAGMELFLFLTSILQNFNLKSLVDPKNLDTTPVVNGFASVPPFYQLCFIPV

Each structure is given as a SMILES string.

Broadly, the IC50 is the concentration at which inhibition is half-maximal. For the compound `CCCN(c1ccnn1-c1ccccc1)S(=O)(=O)c1ccc(N)cc1`, the half-inhibitory concentration (IC50) at Cytochrome P450 2C18 turned out to be 8 µM; on Cytochrome P450 2C8, 8 µM; on Cytochrome P450 2C19, 250 µM; on Cytochrome P450 2C9, 55 µM.

As to `Nc1ccc(S(=O)(=O)N(Cc2ccccc2)c2ccnn2-c2ccccc2)cc1`, the IC50 came to 7 µM on Cytochrome P450 2C18, 15 µM on Cytochrome P450 2C8, 45 µM on Cytochrome P450 2C19 and 55 µM on Cytochrome P450 2C9.

Regarding `Nc1ccc(S(=O)(=O)N(CCCO)c2ccnn2-c2ccccc2)cc1`, the IC50 at Cytochrome P450 2C18 amounted to 30 µM; on Cytochrome P450 2C8 it was 22 µM.

In the case of `CCCN(c1ccnn1-c1ccccc1)S(=O)(=O)c1ccc(C)cc1`, the IC50 is 20 µM on Cytochrome P450 2C18, 15 µM at Cytochrome P450 2C8, 10 µM at Cytochrome P450 2C19 and 20 µM on Cytochrome P450 2C9.

Turning to `O=[N+]([O-])c1cccc(-c2ccc(S(=O)(=O)N(CCO)c3ccnn3-c3ccccc3)cc2)c1`, the half-inhibitory concentration (IC50) on Cytochrome P450 2C18 was 9 µM; on Cytochrome P450 2C8, more than 250 µM; at Cytochrome P450 2C19, 165 µM; on Cytochrome P450 2C9, 20 µM.

Take `CC(C)N(c1ccnn1-c1ccccc1)S(=O)(=O)c1ccc(N)cc1`: the IC50 is 3 µM at Cytochrome P450 2C18, 30 µM at Cytochrome P450 2C8, 130 µM on Cytochrome P450 2C19 and 80 µM at Cytochrome P450 2C9.

Consider `O=[N+]([O-])c1cccc(-c2ccc(S(=O)(=O)N(CCCCO)c3ccnn3-c3ccccc3)cc2)c1`, for which the IC50 on Cytochrome P450 2C18 was 4 µM; at Cytochrome P450 2C8 it was more than 250 µM.

Consider `O=[N+]([O-])c1cccc(-c2ccc(S(=O)(=O)N(CCCO)c3ccnn3-c3ccccc3)cc2)c1`, for which the IC50 at Cytochrome P450 2C18 is 8 µM; on Cytochrome P450 2C8, more than 250 µM.

On to `CCN(c1ccnn1-c1ccccc1)S(=O)(=O)c1ccc(N)cc1`, for which the half-maximal inhibitory concentration (IC50) at Cytochrome P450 2C18 was determined as 7 µM; at Cytochrome P450 2C8, 13 µM; at Cytochrome P450 2C19 it was 225 µM; on Cytochrome P450 2C9, 90 µM.

`NCCc1ccc(S(=O)(=O)N(CCCO)c2ccnn2-c2ccccc2)cc1`: the IC50 on Cytochrome P450 2C18 was 65 µM; at Cytochrome P450 2C8, more than 250 µM.

As to `CCCCN(c1ccnn1-c1ccccc1)S(=O)(=O)c1ccc(N)cc1`, the IC50 on Cytochrome P450 2C18 turned out to be 6 µM; on Cytochrome P450 2C8 it was 4 µM; on Cytochrome P450 2C19 it was 60 µM; at Cytochrome P450 2C9 it was 50 µM.

On to `Cc1ccc(S(=O)(=O)N(C)c2ccnn2-c2ccccc2)cc1`, for which the IC50 was 12 µM on Cytochrome P450 2C18, 180 µM at Cytochrome P450 2C8, 20 µM at Cytochrome P450 2C19 and 10 µM at Cytochrome P450 2C9.

As to `C=CCc1ccc(S(=O)(=O)Nc2ccnn2-c2ccccc2)cc1`, the IC50 is 150 µM at Cytochrome P450 2C18, 10 µM at Cytochrome P450 2C8, 450 µM on Cytochrome P450 2C19 and 1 µM at Cytochrome P450 2C9.

As for `Nc1cccc(-c2ccc(S(=O)(=O)Nc3ccnn3-c3ccccc3)cc2)c1`, the results for the IC50 at Cytochrome P450 2C18 and on Cytochrome P450 2C8 were 20 µM and 8 µM, respectively.

As for `C=CCc1ccc(S(=O)(=O)N(C)c2ccnn2-c2ccccc2)cc1`, the IC50 on Cytochrome P450 2C18 was 10 µM; at Cytochrome P450 2C8, 20 µM; on Cytochrome P450 2C19 it was 20 µM; on Cytochrome P450 2C9 it was more than 200 µM.

With `CN(c1ccnn1-c1ccccc1)S(=O)(=O)c1ccc(N)cc1`, the IC50 on Cytochrome P450 2C18 turned out to be 15 µM; on Cytochrome P450 2C8, 50 µM; at Cytochrome P450 2C19 it was 200 µM; on Cytochrome P450 2C9, 100 µM.

In the case of `Nc1ccc(S(=O)(=O)Nc2ccnn2-c2ccccc2)cc1` [SULFAPHENAZOLE], the IC50 on Cytochrome P450 2C18 turned out to be 60 µM; at Cytochrome P450 2C8 it was 130 µM.
